Experimental data: ChEMBL document CHEMBL1130552, “Synthesis and biological evaluation of 14,15-dehydro-LTA4 analog” (1997)

Organism: Cavia porcellus
Assay: Relative contractile potency in guinea pig ileum assay compared to 14,15-dehydro-LTA 4 methyl ester
Format: functional

Compound: CCCCCC#CC\C=C/C=C/C=C/[C@@H](SC[C@H](NC(=O)CC[C@H](N)C(=O)O)C(=O)NCC(=O)O)[C@@H](O)CCCC(=O)O
- Relative contractile potency: 0.9
